From patent US4692433A, “Method and composition for regulating serum calcium levels of mammals” (The Regents of the University of California, priority 1985, dated 1987)

Assays:
fasted normal rats = test: Serum calcium change after oral administration of salmon calcitonin preparations; type: in vivo, rat
Experimental: (§1) The polypeptide hormone is incorporated into the liposome as follows: the phospholipid components are dissolved in an organic solvent such as chloroform. The solvent is then removed to produce a lipid film. A buffer solution containing the polypeptide hormone is then added and mixed to form a suspension of the phospholipid film and polypeptide hormone. The suspension is then sonicated to form the liposome-entrapped polypeptide hormone. The suspension is then centrifuged at 120,000 times g for 16 hours to obtain a pellet consisting of liposome-entrapped hormone while the supernatant contains the unentrapped hormone. The liposomes in the pellet are then taken up in a small amount of buffer and subsequently used to influence calcium homestasis by oral administration.
Purified salmon and human calcitonin or human parathyroid hormone (1-34 amino acid fragment) were incorporated into liposomes consisting of natural or synthetic phospholipids and positively-charged amine-containingamphiphile. Liposomes containing the entrapped hormones were isolated by centrifugation, resuspended in buffer and administered by stomach tube to fasted normal rats (calcitonin) or fasted parathyroidectomized rats (parathyroid hormone). The serum calcium was determined at various time intervals in treated and untreated animals to assess the effect of the respective preparations. […]

[1] = test system: fasted parathyroidectomized rats; test: Serum calcium change after oral administration of PTH preparations by stomach tube; type: in vivo, rat
Experimental: as §1
Purified salmon and human calcitonin or human parathyroid hormone (1-34 amino acid fragment) were incorporated into liposomes consisting of natural or synthetic phospholipids and positively-charged amine-containingamphiphile. Liposomes containing the entrapped hormones were isolated by centrifugation, resuspended in buffer and administered by stomach tube to fasted normal rats (calcitonin) or fasted parathyroidectomized rats (parathyroid hormone). The serum calcium was determined at various time intervals in treated and untreated animals to assess the effect of the respective preparations.
450 micromoles of egg phosphatidylcholine (ePC) and 50 micromoles of stearylamine (SA) were dissolved in 2 to 3 ml of anhydrous chloroform placed in a 30 ml glass stopper tube and the solvent was removed in vacuo. To the thin film of lipid remaining on the wall of the tube was added 5.0 ml of buffer (20 mM NaCl containing 5 mM Tris, pH 7.4) containing 1 mg human PTH (hPTH 1-34) and 1×10^6 CPM of I^125 -human PTH tracer (hPTH 1-34). The buffer was mixed at room temperature for 5 minutes using a vortex mixer.
After vortexing the mixture was sonicated for 3 minutes at room temperature using the cuphorn of a Heat Systems Ultrasonics sonicator at maximal output. […]

Compound | enhancement of the calcitonin effect on serum calcium by additive (in words) (fasted normal rats) | Change in serum Ca2+ ([1]; Table 2: oral, 40 μg, after 2 hr, triplicate, mean ± Std. error of mean) | Change in serum Ca2+ ([1]; Table 3: 2 hours after oral administration to rats, 40 μg PTH, values marked (3) are triplicate mean ± Std. error of mean) [mg/dL] | effect on serum calcium (in words) ([1]; oral administration to rats, equivalent dose)
CC(=O)Oc1ccccc1C(=O)O [aspirin] | enhances slightly the effect of free CT | – | – | –
Free PTH: free human parathyroid hormone, 1-34 amino acid fragment, given orally (SVSEIQLMHNLGKHLNSMERVEWLRKKLQDVHNF; Parathyroid hormone; UniProt P01270 32-65, looked up, fragment) | – | +0.08 0.25 mg/dl | -0.05 | no effect
